From patent publication US8198446B2, “Crystalline micropowder particles” (Toray Industries, Inc., priority 2007, dated 2012)
Where “and” joins values, the source holds several entries; their conditions need not be identical. Identical values can stand only once.

How the values were obtained:
Type in all cases: physicochemical
[1] = Storage stability (1): content of pharmaceutical active substance by HPLC, 60° C./75% RH opened
Method: For comparison of storage stability, the ground pharmaceutical active substance of Example 6 (crystallinity 88%) which was ground with a jet mill pulverizer Co-jet (α-mkII: manufactured by Seishin Enterprise) and that of Comparative Example 7 (crystallinity 73%) which was ground with a mortar and pestle were left under the storage condition of 60° C./75% RH opened, and the content of the pharmaceutical active substance was analyzed by HPLC 0.5 and 2 months after the start of the storage (Table 6).

[2] = Measurement of particle diameter distribution (laser diffraction, dry measurement, Mastersizer 2000); conditions: for Particle Diameter Distribution D50 / Particle Diameter Distribution D90: dry measurement, volume basis
Method: In the present invention, D50 and D90 are indices for defining particle diameter distribution. Particle diameter distribution is usually called particle size distribution. Particles are divided into groups along with their size with appropriate intervals, and weight (volume) or particle number of the particles belonging to each group is measured to obtain the particle number (frequency) of each group. Taking the particle number (frequency) along the ordinate and taking the particle diameter along the abscissa, a particle diameter distribution is shown as a histogram, frequency curve, cumulative curve or the like. In the present invention, frequency was calculated based on volume. In the particle diameter distribution obtained in such a manner, D50 means the particle diameter at the point where the volume which is cumulatively measured from smaller particles reaches 50%, that is, the point where the cumulative frequency of the volume distribution reaches 50%. D90 means the particle diameter at the point where the volume which is cumulatively measured from smaller particles reaches 90%, that is, the point where the cumulative frequency of the volume distribution reaches 90%. Cumulative frequency (%) of particles which have a smaller diameter than a specified particle diameter can also be calculated from such a distribution chart.
Measurement of the particle diameter distribution of the crystalline finely-ground particles according to the present invention may be carried out with a commercially available apparatus using laser diffraction/scattering based on Mie Theory. For example, the measurement is carried out using a commercially available apparatus such as Malvern (registered trademark) Mastersizer Laser Diffraction Analyzer (Malvern Instruments Ltd). This analyzer irradiates He—Ne laser beam and blue light-emitting diode on particles to obtain a light scattering pattern which occurs on a detector by the irradiation, and then analyzes the light scattering pattern according to Mie Theory to determine the particle diameter distribution. […] An example of the measurement condition is as follows, which was used in Evaluation 1 of the present invention.
• Apparatus: Laser diffraction-based particle size distribution analyzer Mastersizer 2000 (Malvern) • Dry measurement unit: Scircco 2000 • Refractive Index of Samples: Real part; 1.810, Imaginary part; 0 • Time for Sample Measurement: 1 second • Time for Background Measurement: 5 seconds • Pressure: 2.0 bar • Feed Rate: 40% • Analysis Model: Single narrow mode • Calculation Sensitivity Enhanced • Particle Shape Irregular • Analysis Range: 0.020 to 2000 μm • Basis of Size Distribution Measurement: Volume
The particle diameter distribution of the subject compound was measured by dry measurement using a particle size distribution analyzer (Mastersizer 2000, manufactured by Malvern). D50 and D90 were calculated as an index of the particle diameter distribution.

[3] = Check of crystalline state and measurement of degree of crystallinity by powder X-ray diffraction; conditions: for Degree of Crystallinity: powder X-ray diffraction, Xc=(Sc/(Sc+Sa))×100
Method: The degree of crystallinity of the crystalline finely-ground particles according to the present invention is calculated from the integrated intensity ratio of crystalline peaks and amorphous halo which are extracted from an X-ray diffraction pattern obtained by powder X-ray diffraction measurement.
The powder X-ray diffraction measurement may be carried out by using, for example, a powder X-ray diffractometer (2200/RINT Ultima+PC) manufactured by Rigaku as described in Evaluation 2 of the present invention. In preparation of a measurement sample, 100 mg of a sample material is filled in a glass sample plate (0.2 mm depth) in non-destructive condition, and the surface of the sample material is leveled out using a glass plate to obtain a measurement sample. An example of the measurement condition is as follows, which was used in the present invention.
The degree of crystallinity may be calculated by a known analysis method using diffraction patterns of a sample material and sample plate alone (without a sample material) and a difference pattern thereof. For example, using a powder X-ray diffraction pattern analysis software JADE5.0 produced by MDI, which is a commercially available analysis software, a degree of crystallinity may be calculated as follows.
• (1) A difference pattern of the diffraction patterns of a sample material and sample plate alone is smoothed (Savitzky-Goray filter: 19 points). • (2) For a display area of the difference pattern, the x-axis: diffraction angle (2θ) is set between 2 deg and 90 deg, and the y-axis: diffraction intensity (Counts) is set between 0 and 500. • (3) Points are set at diffraction angles of […], 65 and 90 deg, respectively, and a straight line parallel to the x-axis is drawn such that the line is contact with the difference diffraction pattern at a range of 65 deg to 90 deg. The area below the line is determined as a background. • (4) The background is subtracted. • (5) An integrated intensity at a range of 4 deg to 60 deg is calculated (which corresponds to a sum of the integrated intensity of crystalline peaks and an amorphous halo: Sc+Sa) • (6) Points are set at diffraction angles of 2, 7, 18, 26, 30, 35, 59, 65 and 90 deg, respectively. At 2, 65 and 90 deg, the diffraction intensity is set as 0, and at 7, 18, 26, 30, 35 and 59 deg, an approximation by a cubic spline is made such that the approximation formula is in contact with the difference pattern obtained after the subtraction of the background, thereby estimating an amorphous halo. • (7) The amorphous halo is subtracted. • (8) The integrated intensity at a range of 4 deg to 60 deg is calculated (which corresponds to the integrated intensity of the crystalline peaks: Sc). • (9) A degree of crystallinity is calculated according to the following equation. Xc=(Sc/(Sc+Sa))×100 Equation • Xc: Degree of crystallinity (%) • Sc: Integrated intensity of the crystalline peaks • Sa: Integrated intensity of the amorphous halo
For check of the crystalline state and measurement of the degree of crystallinity, powder X-ray diffraction measurement was carried out using a powder X-ray diffraction analyzer (2200/RINT Ultima+PC) manufactured by Rigaku.

[4] = 60° C./75% RH opened, 0.5-Month Later
[5] = 60° C./75% RH opened, 2-Month Later

| SMILES | Content of Pharmaceutical Active Substance by HPLC [1, 4] | Degree of Decrease Based on Start of Storage [1, 4] | Content of Pharmaceutical Active Substance by HPLC [1, 5] | Degree of Decrease Based on Start of Storage [1, 5] | Content of Pharmaceutical Active Substance by HPLC ([1]; At Start of Storage) | Particle Diameter Distribution D50 [2] | Particle Diameter Distribution D90 [2] | Degree of Crystallinity [3] | crystalline state by powder X-ray diffraction ([3]; Eight hours after grinding with ball mill) | Cumulative Frequency of Volume Distribution Which Is Occupied by Particles with Volume-Based Particle Diameter 15 (μm) or Less [2] |
| --- | --- | --- | --- | --- | --- | --- | --- | --- | --- | --- |
| O=C1c2ccccc2C(=O)N1[C@@H]1CC[C@@]2(O)[C@H]3Cc4ccc(O)c5c4[C@@]2(CCN3CC2CC2)[C@H]1O5 [Example 6, N-(17-cyclopropylmethyl-4,5α-epoxy-3,14-dihydroxy-morphinan-6β-yl)-phthalimide] | 99.15% | 1.39 | 99.09% | 1.49 | 99.39% | 5.13 μm | 11.2 μm | – | – | – |
| O=C1c2ccccc2C(=O)N1[C@@H]1CC[C@@]2(O)[C@H]3Cc4ccc(O)c5c4[C@@]2(CCN3CC2CC2)[C@H]1O5 [Example 9, N-(17-cyclopropylmethyl-4,5α-epoxy-3,14-dihydroxy-morphinan-6β-yl)-phthalimide] | – | – | – | – | – | 11.5 μm | 30.9 μm | 89% | – | – |
| O=C1c2ccccc2C(=O)N1[C@@H]1CC[C@@]2(O)[C@H]3Cc4ccc(O)c5c4[C@@]2(CCN3CC2CC2)[C@H]1O5 [Example 1, N-(17-cyclopropylmethyl-4,5α-epoxy-3,14-dihydroxy-morphinan-6β-yl)-phthalimide] | – | – | – | – | – | 4.25 μm | 9.14 μm | 89% | – | – |
| O=C1c2ccccc2C(=O)N1[C@@H]1CC[C@@]2(O)[C@H]3Cc4ccc(O)c5c4[C@@]2(CCN3CC2CC2)[C@H]1O5 [Comparative Example 7, N-(17-cyclopropylmethyl-4,5α-epoxy-3,14-dihydroxy-morphinan-6β-yl)-phthalimide] | 98.85% | 1.64 | 98.51% | 2.13 | 99.30% | – | – | – | – | – |
| O=C1c2ccccc2C(=O)N1[C@@H]1CC[C@@]2(O)[C@H]3Cc4ccc(O)c5c4[C@@]2(CCN3CC2CC2)[C@H]1O5 [Comparative Example 3, N-(17-cyclopropylmethyl-4,5α-epoxy-3,14-dihydroxy-morphinan-6β-yl)-phthalimide] | – | – | – | – | – | – | – | – | converted into an amorphous material | – |
| O=C1c2ccccc2C(=O)N1[C@@H]1CC[C@@]2(O)[C@H]3Cc4ccc(O)c5c4[C@@]2(CCN3CC2CC2)[C@H]1O5 [Example 4, N-(17-cyclopropylmethyl-4,5α-epoxy-3,14-dihydroxy-morphinan-6β-yl)-phthalimide] | – | – | – | – | – | 14.6 μm | 47.8 μm | 96% | – | 51.7% |
| O=C1c2ccccc2C(=O)N1[C@@H]1CC[C@@]2(O)[C@H]3Cc4ccc(O)c5c4[C@@]2(CCN3CC2CC2)[C@H]1O5 [Example 8, N-(17-cyclopropylmethyl-4,5α-epoxy-3,14-dihydroxy-morphinan-6β-yl)-phthalimide] | – | – | – | – | – | 11.8 μm | 35.3 μm | 92% | – | – |
| O=C1c2ccccc2C(=O)N1[C@@H]1CC[C@@]2(O)[C@H]3Cc4ccc(O)c5c4[C@@]2(CCN3CC2CC2)[C@H]1O5 [Comparative Example 1, N-(17-cyclopropylmethyl-4,5α-epoxy-3,14-dihydroxy-morphinan-6β-yl)-phthalimide] | – | – | – | – | – | 32.4 μm | 110 μm | 97% | – | 23.3% |
| O=C1c2ccccc2C(=O)N1[C@@H]1CC[C@@]2(O)[C@H]3Cc4ccc(O)c5c4[C@@]2(CCN3CC2CC2)[C@H]1O5 [Example 7, N-(17-cyclopropylmethyl-4,5α-epoxy-3,14-dihydroxy-morphinan-6β-yl)-phthalimide] | – | – | – | – | – | 5.67 μm | 16.1 μm | 87% | – | – |
| O=C1c2ccccc2C(=O)N1[C@@H]1CC[C@@]2(O)[C@H]3Cc4ccc(O)c5c4[C@@]2(CCN3CC2CC2)[C@H]1O5 [Example 5, N-(17-cyclopropylmethyl-4,5α-epoxy-3,14-dihydroxy-morphinan-6β-yl)-phthalimide] | – | – | – | – | – | 7.83 μm | 16.0 μm | 90% | – | – |
| O=C1c2ccccc2C(=O)N1[C@@H]1CC[C@@]2(O)[C@H]3Cc4ccc(O)c5c4[C@@]2(CCN3CC2CC2)[C@H]1O5 [Example 3, N-(17-cyclopropylmethyl-4,5α-epoxy-3,14-dihydroxy-morphinan-6β-yl)-phthalimide] | – | – | – | – | – | 9.89 μm | 29.4 μm and 28.4 μm | 94% | – | 70.8% |
